In US12240853B2, “Compounds useful in HIV therapy” (GlaxoSmithKline Intellectual Property (No.2) Limited, priority 2019, dated 2025):
Like-named read-outs stand apart in the source and are kept apart here.

Assay: Example 18 cynomolgus monkey PK study (SC and IM)
Format: in vivo, cynomolgus monkeys
From the text: Example 18 referenced herein was made in accordance with Synthesis B. Six male cynomolgus monkeys (+1 spare) were selected from the Testing Facility's colony of non-naïve animals. The animals were assigned to the study based on acceptable health as determined by a Testing Facility veterinarian. Six animals were selected and placed into two groups of three animals each. Fasting of the animals before or after dosing was not required.
[…] […] The animals were manually restrained for dosing and were not sedated. The dose sites were clipped of hair and wiped with alcohol before dosing. All dosing was performed as detailed in the study protocol and was completed without incident.
Blood samples were collected from the study animals as detailed in the sample collection Table 39 below.
Blood samples were collected by venipuncture of a cephalic vein. For PK, blood was transferred to a blood collection tube containing NaF/Na2EDTA anticoagulant, mixed by inversion, and maintained on wet ice until processing. The blood samples were centrifuged at 2200×g for 10 minutes at 5° C. to isolate plasma. The resulting plasma samples were transferred to individual polypropylene tubes in a 96-well plate format and immediately placed on dry ice until storage at nominally −20° C. prior to shipment for analysis.
The PK plasma samples were analyzed approximately every two weeks by the Testing Facility to determine the concentration of Example 18 (prodrug) and parent using an LC-MS/MS Research Grade Assay (RGA-1) with sensitivity to 0.1 ng/mL. Following interim review of sample analysis data, analysis for Example 18 (prodrug) was discontinued after the Day 57 sample collections. The bioanalytical report and sample concentration data are presented in Tables 40 and 41, and mean concentration-time profiles are shown in FIGS. 29 and 30

C#C[C@]1(COC(=O)CCCCCCCCC)O[C@@H](n2cnc3c(N)nc(F)nc32)C[C@@H]1OC(=O)CCCCCCCCC [Example 18, (2R,3S,5R)-5-(6-amino-2-fluoro-9H-purin-9-yl)-2-((decanoyloxy)methyl)-2-ethynyltetrahydrofuran-3-yl Decanoate]
Example 18 plasma concentrations (IM EFdA, Monkey 2001, 43 days): BQL (BQL—Below Quantitation Limit, <0.100 ng/mL) | Example 18 plasma concentrations (IM EFdA, Monkey 2001, 57 days): BQL (BQL—Below Quantitation Limit, <0.100 ng/mL) | EFdA plasma concentrations (IM EFdA, Monkey 2002, 0.021 days): BQL (BQL—Below Quantitation Limit, <0.100 ng/mL) | Example 18 plasma concentrations (IM EFdA, Monkey 2002, 36 days): BQL (BQL—Below Quantitation Limit, <0.100 ng/mL) | Example 18 plasma concentrations (IM EFdA, Monkey 2002, 39 days): BQL (BQL—Below Quantitation Limit, <0.100 ng/mL) | Example 18 plasma concentrations (IM EFdA, Monkey 2002, 46 days): BQL (BQL—Below Quantitation Limit, <0.100 ng/mL) | Example 18 plasma concentrations (IM EFdA, Monkey 2002, 50 days): BQL (BQL—Below Quantitation Limit, <0.100 ng/mL) | Example 18 plasma concentrations (IM EFdA, Monkey 2003, 29 days): BQL (BQL—Below Quantitation Limit, <0.100 ng/mL) | Example 18 plasma concentrations (IM EFdA, Monkey 2003, 53 days): BQL (BQL—Below Quantitation Limit, <0.100 ng/mL) | Example 18 plasma concentrations (IM equivalent of EFdA, Monkey 2001, 25 days): BQL (BQL—Below Quantitation Limit, <0.100 ng/mL) | Example 18 plasma concentrations (IM equivalent of EFdA, Monkey 2001, 32 days): BQL (BQL—Below Quantitation Limit, <0.100 ng/mL) | Example 18 plasma concentrations (IM equivalent of EFdA, Monkey 2001, 39 days): BQL (BQL—Below Quantitation Limit, <0.100 ng/mL) | Example 18 plasma concentrations (IM equivalent of EFdA, Monkey 2001, 53 days): BQL (BQL—Below Quantitation Limit, <0.100 ng/mL) | Example 18 plasma concentrations (IM equivalent of EFdA, Monkey 2002, 32 days): BQL (BQL—Below Quantitation Limit, <0.100 ng/mL) | Example 18 plasma concentrations (IM equivalent of EFdA, Monkey 2002, 57 days): BQL (BQL—Below Quantitation Limit, <0.100 ng/mL) | EFdA plasma concentrations (IM equivalent of EFdA, Monkey 2003, 0.021 days): BQL (BQL—Below Quantitation Limit, <0.100 ng/mL) | Example 18 plasma concentrations (IM equivalent of EFdA, Monkey 2003, 32 days): BQL (BQL—Below Quantitation Limit, <0.100 ng/mL) | Example 18 plasma concentrations (IM equivalent of EFdA, Monkey 2003, 39 days): BQL (BQL—Below Quantitation Limit, <0.100 ng/mL) | Example 18 plasma concentrations (IM equivalent of EFdA, Monkey 2003, 50 days): BQL (BQL—Below Quantitation Limit, <0.100 ng/mL) | Example 18 plasma concentrations (IM equivalent of EFdA, Monkey 2003, 57 days): BQL (BQL—Below Quantitation Limit, <0.100 ng/mL) | Example 18 plasma concentrations (IM, Monkey 2001, 36 days): BQL (BQL—Below Quantitation Limit, <0.100 ng/mL) | Example 18 plasma concentrations (IM, Monkey 2001, 46 days): BQL (BQL—Below Quantitation Limit, <0.100 ng/mL) | Example 18 plasma concentrations (IM, Monkey 2001, 50 days): BQL (BQL—Below Quantitation Limit, <0.100 ng/mL) | Example 18 plasma concentrations (IM, Monkey 2002, 43 days): BQL (BQL—Below Quantitation Limit, <0.100 ng/mL) | Example 18 plasma concentrations (IM, Monkey 2002, 53 days): BQL (BQL—Below Quantitation Limit, <0.100 ng/mL) | Example 18 plasma concentrations (IM, Monkey 2003, 36 days): BQL (BQL—Below Quantitation Limit, <0.100 ng/mL) | Example 18 plasma concentrations (IM, Monkey 2003, 43 days): BQL (BQL—Below Quantitation Limit, <0.100 ng/mL) | Example 18 plasma concentrations (SC EFdA, Monkey 1001, 22 days): BQL (BQL—Below Quantitation Limit, <0.100 ng/mL) | Example 18 plasma concentrations (SC EFdA, Monkey 1001, 29 days): BQL (BQL—Below Quantitation Limit, <0.100 ng/mL) | Example 18 plasma concentrations (SC EFdA, Monkey 1001, 43 days): BQL (BQL—Below Quantitation Limit, <0.100 ng/mL) | Example 18 plasma concentrations (SC EFdA, Monkey 1001, 46 days): BQL (BQL—Below Quantitation Limit, <0.100 ng/mL) | Example 18 plasma concentrations (SC EFdA, Monkey 1001, 53 days): BQL (BQL—Below Quantitation Limit, <0.100 ng/mL) | EFdA plasma concentrations (SC EFdA, Monkey 1002, 0.021 days): BQL (BQL—Below Quantitation Limit, <0.100 ng/mL) | Example 18 plasma concentrations (SC EFdA, Monkey 1002, 29 days): BQL (BQL—Below Quantitation Limit, <0.100 ng/mL) | Example 18 plasma concentrations (SC EFdA, Monkey 1002, 43 days): BQL (BQL—Below Quantitation Limit, <0.100 ng/mL) | Example 18 plasma concentrations (SC equivalent of EFdA, Monkey 1001, 8 days): BQL (BQL—Below Quantitation Limit, <0.100 ng/mL) | Example 18 plasma concentrations (SC equivalent of EFdA, Monkey 1001, 17 days): BQL (BQL—Below Quantitation Limit, <0.100 ng/mL) | Example 18 plasma concentrations (SC equivalent of EFdA, Monkey 1001, 19 days): BQL (BQL—Below Quantitation Limit, <0.100 ng/mL) | Example 18 plasma concentrations (SC equivalent of EFdA, Monkey 1001, 32 days): BQL (BQL—Below Quantitation Limit, <0.100 ng/mL) | Example 18 plasma concentrations (SC equivalent of EFdA, Monkey 1001, 36 days): BQL (BQL—Below Quantitation Limit, <0.100 ng/mL) | Example 18 plasma concentrations (SC equivalent of EFdA, Monkey 1001, 39 days): BQL (BQL—Below Quantitation Limit, <0.100 ng/mL) | Example 18 plasma concentrations (SC equivalent of EFdA, Monkey 1001, 50 days): BQL (BQL—Below Quantitation Limit, <0.100 ng/mL) | EFdA plasma concentrations (SC equivalent of EFdA, Monkey 1002, 0.042 days): BQL (BQL—Below Quantitation Limit, <0.100 ng/mL) | Example 18 plasma concentrations (SC equivalent of EFdA, Monkey 1002, 22 days): BQL (BQL—Below Quantitation Limit, <0.100 ng/mL) | Example 18 plasma concentrations (SC equivalent of EFdA, Monkey 1002, 32 days): BQL (BQL—Below Quantitation Limit, <0.100 ng/mL) | Example 18 plasma concentrations (SC equivalent of EFdA, Monkey 1002, 39 days): BQL (BQL—Below Quantitation Limit, <0.100 ng/mL) | Example 18 plasma concentrations (SC equivalent of EFdA, Monkey 1002, 50 days): BQL (BQL—Below Quantitation Limit, <0.100 ng/mL) | Example 18 plasma concentrations (SC equivalent of EFdA, Monkey 1002, 53 days): BQL (BQL—Below Quantitation Limit, <0.100 ng/mL) | Example 18 plasma concentrations (SC equivalent of EFdA, Monkey 1002, 57 days): BQL (BQL—Below Quantitation Limit, <0.100 ng/mL) | EFdA plasma concentrations (SC equivalent of EFdA, Monkey 1003, 0.021 days): BQL (BQL—Below Quantitation Limit, <0.100 ng/mL) | EFdA plasma concentrations (SC, Mean, 0.021 days): BQL (BQL—Below Quantitation Limit, <0.100 ng/mL) | Example 18 plasma concentrations (SC, Mean, 17 days): BQL (BQL—Below Quantitation Limit, <0.100 ng/mL) | EFdA plasma concentrations (SC, Monkey 1001, 0.021 days): BQL (BQL—Below Quantitation Limit, <0.100 ng/mL) | Example 18 plasma concentrations (SC, Monkey 1001, 25 days): BQL (BQL—Below Quantitation Limit, <0.100 ng/mL) | Example 18 plasma concentrations (SC, Monkey 1001, 57 days): BQL (BQL—Below Quantitation Limit, <0.100 ng/mL) | Example 18 plasma concentrations (SC, Monkey 1002, 17 days): BQL (BQL—Below Quantitation Limit, <0.100 ng/mL) | Example 18 plasma concentrations (SC, Monkey 1002, 19 days): BQL (BQL—Below Quantitation Limit, <0.100 ng/mL) | Example 18 plasma concentrations (SC, Monkey 1002, 25 days): BQL (BQL—Below Quantitation Limit, <0.100 ng/mL) | Example 18 plasma concentrations (SC, Monkey 1002, 36 days): BQL (BQL—Below Quantitation Limit, <0.100 ng/mL) | Example 18 plasma concentrations (SC, Monkey 1002, 46 days): BQL (BQL—Below Quantitation Limit, <0.100 ng/mL) | EFdA plasma concentrations (SC, Monkey 1003, 0.042 days): BQL (BQL—Below Quantitation Limit, <0.100 ng/mL) | Clinical observations and dose site reactions (cynomolgus monkey, single SC or IM injection, 5 mg parent/kg): All animals appeared normal at the time of each observation and no dose site reactions were observed | concentration at 0.021 days (male, cynomolgus monkey, plasma, intramuscular, 20 mg/kg equivalent of EFdA, IM 20 mg/kg equivalent of EFdA, Mean, 0.021 days, read-out: Example 18 plasma concentrations): 11.9 ng/mL | concentration at 0.042 days (male, cynomolgus monkey, plasma, intramuscular, 20 mg/kg equivalent of EFdA, IM 20 mg/kg equivalent of EFdA, Mean, 0.042 days, read-out: Example 18 plasma concentrations): 15 ng/mL | concentration at 0.125 days (male, cynomolgus monkey, plasma, intramuscular, 20 mg/kg equivalent of EFdA, IM 20 mg/kg equivalent of EFdA, Mean, read-out: Example 18 plasma concentrations): 28.5 ng/mL | concentration at 0.208 days (male, cynomolgus monkey, plasma, intramuscular, 20 mg/kg equivalent of EFdA, IM 20 mg/kg equivalent of EFdA, Mean, 0.208 days, read-out: Example 18 plasma concentrations): 28.3 ng/mL | concentration at 0.292 days (male, cynomolgus monkey, plasma, intramuscular, 20 mg/kg equivalent of EFdA, IM 20 mg/kg equivalent of EFdA, Mean, 0.292 days, read-out: Example 18 plasma concentrations): 18.3 ng/mL | concentration at 1 days (male, cynomolgus monkey, plasma, intramuscular, 20 mg/kg equivalent of EFdA, IM 20 mg/kg equivalent of EFdA, Mean, 1 days, read-out: Example 18 plasma concentrations): 4.49 ng/mL | concentration at 2 days (male, cynomolgus monkey, plasma, intramuscular, 20 mg/kg equivalent of EFdA, IM 20 mg/kg equivalent of EFdA, Mean, 2 days, read-out: Example 18 plasma concentrations): 0.52 ng/mL | concentration at 3 days (male, cynomolgus monkey, plasma, intramuscular, 20 mg/kg equivalent of EFdA, IM 20 mg/kg equivalent of EFdA, Mean, 3 days, read-out: Example 18 plasma concentrations): 0.505 ng/mL | concentration at 8 days (male, cynomolgus monkey, plasma, intramuscular, 20 mg/kg equivalent of EFdA, IM 20 mg/kg equivalent of EFdA, Mean, 8 days, read-out: Example 18 plasma concentrations): 0.187 ng/mL | concentration at 10 days (male, cynomolgus monkey, plasma, intramuscular, 20 mg/kg equivalent of EFdA, IM 20 mg/kg equivalent of EFdA, Mean, 10 days, read-out: Example 18 plasma concentrations): 0.173 ng/mL | concentration at 17 days (male, cynomolgus monkey, plasma, intramuscular, 20 mg/kg equivalent of EFdA, IM 20 mg/kg equivalent of EFdA, Mean, 17 days, read-out: Example 18 plasma concentrations): 0.145 ng/mL | concentration at 19 days (male, cynomolgus monkey, plasma, intramuscular, 20 mg/kg equivalent of EFdA, IM 20 mg/kg equivalent of EFdA, Mean, 19 days, read-out: Example 18 plasma concentrations): 0.124 ng/mL | concentration at 22 days (male, cynomolgus monkey, plasma, intramuscular, 20 mg/kg equivalent of EFdA, IM 20 mg/kg equivalent of EFdA, Mean, 22 days, read-out: Example 18 plasma concentrations): 0.13 ng/mL | concentration at 25 days (male, cynomolgus monkey, plasma, intramuscular, 20 mg/kg equivalent of EFdA, IM 20 mg/kg equivalent of EFdA, Mean, 25 days, read-out: Example 18 plasma concentrations): 0.151 ng/mL | concentration at 0.021 days (male, cynomolgus monkey, plasma, intramuscular, 20 mg/kg equivalent of EFdA, IM 20 mg/kg equivalent of EFdA, Monkey 2001, 0.021 days, read-out: Example 18 plasma concentrations): 21.8 ng/mL | concentration at 0.042 days (male, cynomolgus monkey, plasma, intramuscular, 20 mg/kg equivalent of EFdA, IM 20 mg/kg equivalent of EFdA, Monkey 2001, 0.042 days, read-out: Example 18 plasma concentrations): 29.2 ng/mL | concentration at 0.125 days (male, cynomolgus monkey, plasma, intramuscular, 20 mg/kg equivalent of EFdA, IM 20 mg/kg equivalent of EFdA, Monkey 2001, read-out: Example 18 plasma concentrations): 53.7 ng/mL
